Assay results from PubChem BioAssay AID1645868 (Buhrlage Lab, Dana-Farber Cancer Institute and Novartis …, 2021).
The source made the active and inactive calls.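 Rule for the calls: active = maximal percent inhibition of the deubiquitinase OTUD3 of at least 30% across the tested doses; inactive = the rest.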

Biological target: OTU domain-containing protein 3 (Homo sapiens) (UniProt Q5T2D3)
Assay: Validation of screening hits, potency titration, in vitro enzymatic, OTU domain-containing protein 3 DUB inhibitors (AID 1645868)
Conditions: purified OTUD3, ubiquitin-rhodamine cleavage fluorescence, 2 h

Chain of OTU domain-containing protein 3 (Homo sapiens) (Q5T2D3 whole entry, looked up, the tested form may be a part): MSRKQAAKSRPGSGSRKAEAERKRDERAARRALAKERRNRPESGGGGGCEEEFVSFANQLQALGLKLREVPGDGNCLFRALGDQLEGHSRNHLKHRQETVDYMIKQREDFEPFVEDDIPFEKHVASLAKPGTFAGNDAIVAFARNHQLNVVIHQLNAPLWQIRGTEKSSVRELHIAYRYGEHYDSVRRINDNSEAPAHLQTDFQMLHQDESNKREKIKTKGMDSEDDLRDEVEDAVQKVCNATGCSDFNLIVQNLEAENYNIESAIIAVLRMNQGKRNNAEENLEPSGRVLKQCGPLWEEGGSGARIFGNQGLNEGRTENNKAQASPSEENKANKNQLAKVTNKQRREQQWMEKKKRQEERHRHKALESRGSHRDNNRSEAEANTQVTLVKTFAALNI

Row | IC50 | Compound
1 | 12.5 µM | COC(=O)c1ccc2c(=O)n(CCCCCC(=O)NCCc3ccc(S(N)(=O)=O)cc3)c(=O)[nH]c2c1
2 | 9.57 µM | Cc1ccc(CNC(=O)CCCn2c(=O)c3sccc3n(CC(=O)Nc3cc(Cl)ccc3C)c2=O)cc1
3 | > 50 µM (inactive) | CC(=O)Nc1cc(-c2cccc(O)c2)cn2c(-c3cnn(C)c3)cnc12
4 | > 50 µM (inactive) | O=c1oc2ccccc2c2nn(-c3ccccn3)cc12
5 | 47.2 µM | Cc1cc(C(=O)NC2(O)C(=O)c3ccccc3C2=O)n(C)n1
6 | > 50 µM (inactive) | COc1cccc(-c2cc(C(=O)N3CCN(c4ccc(N5CCOCC5)nn4)CC3)[nH]n2)c1
7 | > 50 µM (inactive) | COCCNC(=O)c1cc(-c2cn(-c3ccccn3)c(C)n2)n2ccccc12
8 | 22.2 µM | O=C(Cc1noc2ccccc12)NCC(=O)Nc1ccc(Cl)cc1
9 | > 50 µM (inactive) | COc1ccc(S(=O)(=O)N(C)Cc2cccs2)cc1OC
10 | > 50 µM (inactive) | Cc1cccc(NC(=O)CSc2ncnc3c2sc2nc(CC(C)C)c4c(c23)CCC4)c1
11 | > 50 µM (inactive) | COc1ccc(-c2nc(SCC(=O)Nc3ccc(Cl)cc3F)n[nH]2)cc1
12 | > 50 µM (inactive) | COc1ccc(C(=O)Nc2ccc3c(c2)C(=O)N(C)c2ccccc2O3)cc1
13 | > 50 µM (inactive) | Cc1ccccc1Cc1nc(-c2ccc(=O)[nH]c2)no1
14 | > 50 µM (inactive) | COc1ccc(C2C(C(=O)C(C)(C)C)N3c4ccccc4C=CC3C23C(=O)c2ccccc2C3=O)c(OC)c1 (stereo unspecified)
15 | > 50 µM (inactive) | Cc1ccc(C)c(NS(=O)(=O)c2cc(-c3cnc(C4CC4)o3)ccc2C)c1
16 | > 50 µM (inactive) | O=C(/C=C/c1cnc2ccccc2c1)NCc1ccccc1
17 | > 50 µM (inactive) | O=[N+]([O-])c1cccc(CSc2nnc(/C=C/c3ccccc3)o2)c1
18 | 19.7 µM | CCCCCC(=O)N1c2ccccc2NC2=C(C(=O)CC(c3ccc(C(C)(C)C)cc3)C2)C1c1ccncc1 (stereo unspecified)
19 | > 50 µM (inactive) | COc1ccc(-c2nc3n(n2)C(c2cccc(O)c2)C2=C(CCCC2=O)N3)cc1 (stereo unspecified)
20 | 28.6 µM | CCc1ccc2[nH]c3c(c(=O)c2c1)CN(CC(=O)NCc1ccc2c(c1)OCO2)CC3
21 | > 50 µM (inactive) | Cc1c(C(=O)Nc2cccc(C(F)(F)F)c2)cnn1-c1ccccn1
22 | 24.7 µM | NS(=O)(=O)c1ccc(CNS(=O)(=O)c2ccc(-c3ccccn3)s2)cc1
23 | > 50 µM (inactive) | Cc1oc(C2CC2)cc1C(=O)N1CCC2(CC1)CC1(CO2)Nc2ccccc2-n2cccc21 (stereo unspecified)

Row | IC50 | Compound
24 | > 50 µM (inactive) | COc1cccc(CN2CCc3nc4nc(C)ccc4cc3C2)c1
25 | > 50 µM (inactive) | CCCCn1c(=O)c(CCC(=O)OCC(=O)Nc2ccc3c(c2)OCCO3)nc2ccccc21
26 | 45.3 µM | Cc1nc(NCc2ccccn2)c2cc(-c3ccccc3)sc2n1
27 | > 50 µM (inactive) | CC(C)(C)C(=O)C1C2C(=O)N(Cc3ccccc3)C(=O)C2C2c3ccccc3C=CN12 (stereo unspecified)
28 | > 50 µM (inactive) | COc1ccc(OC)c(-c2cc(C(=O)Nc3c(C)nn(Cc4ccccc4)c3C)no2)c1
29 | > 50 µM (inactive) | O=C1/C(=C/c2cn(-c3ccccc3)nc2-c2ccc3c(c2)OCCO3)Cc2ccccc21
30 | 24 µM | Cc1cc(C)c2sc(N(CCCn3ccnc3)C(=O)Cc3ccccc3)nc2c1
31 | 26.5 µM | CCc1cc2cc3c(cc2nc1SCC(=O)Nc1cccc(C(C)=O)c1)OCO3
32 | > 50 µM (inactive) | Cc1cc(C(=O)COC(=O)c2ccc[nH]c2=O)c(C)n1-c1ccc2c(c1)OCO2
33 | > 50 µM (inactive) | CC1Oc2ccccc2C(=O)N(Cc2ccc([N+](=O)[O-])cc2)C1=O (stereo unspecified)
34 | 19 µM | O=C(CN1C(=O)C2CCCC2=Nc2ccccc21)Nc1cc(F)ccc1F (stereo unspecified)
35 | 9.18 µM | Cc1ccc(Cn2c(=O)c3ccccc3n3c(CCC(=O)N4CCN(c5ccccn5)CC4)nnc23)cc1
36 | > 50 µM (inactive) | Cc1cc2nc(/C=C/c3ccccc3)n(Cc3cccc(F)c3)c2cc1C
37 | > 50 µM (inactive) | Nc1nonc1C(=O)NCCNCc1cccc(OCc2ccc(Cl)cc2)c1
38 | > 50 µM (inactive) | N#Cc1ccc(Cl)cc1NC(=O)COc1cccnc1[N+](=O)[O-]
39 | > 50 µM (inactive) | COc1ccc(NC(=O)c2nc3n(n2)-c2ccccc2S(=O)(=O)N3)cn1
40 | 43.4 µM | CCOc1ccc(-c2nc(C#N)c(N3CCN(C(=O)c4ccccc4C)CC3)o2)cc1
41 | > 50 µM (inactive) | CN(CCCNC(=O)c1cccc2c1SCCC2=O)c1ccccc1
42 | > 50 µM (inactive) | COc1cc(NC(=O)c2cc(-c3ccncc3)n(-c3ccc(F)cc3)n2)cc(OC)c1
43 | > 50 µM (inactive) | COc1ccc(C(=O)Nc2cc3c4c(c2)C(C)C(=O)N4CCC3)cc1 (stereo unspecified)
44 | > 50 µM (inactive) | Cc1nc(C(=O)Nc2cccc(Cl)c2Cl)nn1-c1cc(Cl)cc(Cl)c1
45 | > 50 µM (inactive) | CCC1OC(O)(C(C)C(O)C(C)C2OC(=O)/C(C)=C/C(C)=CC(C)C(O)C(C)C/C(C)=C/C=C/C2OC)CC(OC(=O)/C=C/C(=O)NC2=C(O)CCC2=O)C1C (stereo unspecified)
46 | > 50 µM (inactive) | O=C1CC(NS(=O)(=O)c2ccc3ccccc3c2)CN1c1cccc(F)c1 (stereo unspecified)

Row | IC50 | Compound
47 | > 50 µM (inactive) | CC(C)(C)c1ccc(-c2nnc3n2-c2ccccc2SC3)cc1
48 | 18.6 µM | Cc1ccc(Cn2c(=O)n(CCC(=O)NCCc3ccccc3)c(=O)c3ccccc32)cc1
49 | 8.29 µM | COc1cc2c(cc1OC)-c1cc(Nc3ccc(Br)cc3)nc(=O)n1CC2
50 | > 50 µM (inactive) | Cn1nccc1C(=O)N1CCCCC1c1ncc(Cc2ccc(Cl)cc2)o1 (stereo unspecified)
51 | > 50 µM (inactive) | Cc1nc2cc(NC(=O)C3CN(C(=O)c4cnccn4)C3)ccc2s1
52 | > 50 µM (inactive) | COc1ccc(Cn2cnc3c([nH]c4ccc(Br)cc43)c2=O)cc1
53 | 30.5 µM | O=C(COc1cccc2ccc(N3CCC(Cc4ccccc4)CC3)nc12)NCc1ccc(F)cc1
54 | 2.42 µM | COc1ccc(OCCn2c(C3CC(=O)N(c4cccc(C)c4)C3)nc3ccccc32)cc1 (stereo unspecified)
55 | 37.6 µM | O=C(Nc1cccc(C(F)(F)F)c1)N1CCCn2c(nc3ccccc32)C1
56 | 37.2 µM | CCOc1ccc(NS(=O)(=O)c2ccc(NC(=O)Nc3ccccc3)cc2)cc1
57 | > 50 µM (inactive) | CCCCN(C)C(=O)c1cc2c(=O)n3cccc(C)c3nc2n1Cc1ccccc1
58 | > 50 µM (inactive) | O=S(=O)(c1cccc2cccnc12)N(CCc1ccccc1)C1CCN(CCc2ccc(Cl)cc2)CC1
59 | 44.5 µM | COc1ccc2[nH]cc(S(=O)(=O)c3ccc(C)c(F)c3)c(=O)c2c1
60 | > 50 µM (inactive) | CCN(Cc1ccccc1)S(=O)(=O)c1ccc(C(=O)Nc2ccc3c(c2)OCCO3)cc1
61 | > 50 µM (inactive) | CC(=O)Nc1cccc(NC(=O)COc2cccc3ccc(N4CCCC4)nc23)c1
62 | > 50 µM (inactive) | COc1cccc2c1OCC(NS(=O)(=O)c1cc(C)ccc1C)C2 (stereo unspecified)
63 | > 50 µM (inactive) | Cc1ccc(CNC(=O)Cn2cnc3c(cnn3-c3cccc(Cl)c3)c2=O)cc1
64 | > 50 µM (inactive) | COc1cccc(NC(=O)C2Cn3ccnc3C3(CCN(C(C)=O)CC3)O2)c1 (stereo unspecified)
65 | 3.48 µM | Cc1cc(NC(=O)Cn2c(=O)n(CCCCC(=O)NCc3ccco3)c(=O)c3ccccc32)ccc1Br
66 | > 50 µM (inactive) | CC(=O)c1cccc(NC(=O)c2ccc(N3CCCCC3)nn2)c1
67 | > 50 µM (inactive) | Cc1nc2cc(C(=O)NCCC3=CCCCC3)ccc2n1-c1cccc(F)c1
68 | > 50 µM (inactive) | O=C(NCc1ccc2c(c1)OCO2)c1nn(C23CC4CC(CC(C4)C2)C3)cc1[N+](=O)[O-]
69 | 21.7 µM | COc1ccc(CCN2COc3c(cc(Cl)c4cccnc34)C2)cc1OC

Row | IC50 | Compound
70 | 25.1 µM | O=C1CC(C(=O)Nc2ccccc2F)n2nc(-c3ccccc3)cc2N1 (stereo unspecified)
71 | > 50 µM (inactive) | CN1CCN(C(=O)c2cc(-c3ccn(CC4CC4)n3)n3ccccc23)CC1
72 | 27.6 µM | Cc1ccc(NC(=O)Cn2cc(S(=O)(=O)N3CCCC3)ccc2=O)cc1
73 | 29.8 µM | COc1ccc(NC(=O)c2ccccc2OCC(=O)Nc2ccccc2C(F)(F)F)c(C)c1
74 | > 50 µM (inactive) | COCCNC(=O)c1ccnn1-c1ccc2ccc(-c3cccnc3)cn12
75 | 41.3 µM | O=C1C[C@@H](O)[C@H](O)[C@@]23O[C@@]12C1(Oc2cccc4cccc(c24)O1)[C@@H]1O[C@@H]1[C@@H]3O
76 | > 50 µM (inactive) | COc1cc(-c2cc(C(=O)Nc3cc(C)[nH]n3)c3ccccc3n2)cc(OC)c1OC
77 | > 50 µM (inactive) | c1ccc(-c2noc(-c3cc(-c4ccncc4)nc4ccccc34)n2)nc1
78 | > 50 µM (inactive) | N#Cc1cccc(NC(=O)Cn2cccc(-c3nc(-c4ccccc4)no3)c2=O)c1
79 | > 50 µM (inactive) | COc1ccc(CN2C[C@@H]3C[C@]3(c3ccccc3)C(=O)c3ncccc32)cc1
80 | 24 µM | CC1=C(C(=O)Nc2ccccc2C)C(c2ccc(OCc3ccccc3F)cc2)n2ncnc2N1 (stereo unspecified)
81 | 22.7 µM | CCn1cc2c(n1)c(=O)n(Cc1ccc(C)cc1)c(=O)n2CC(=O)Nc1ccc(F)cc1
82 | 12.2 µM | Cc1cc(NC(=O)c2cc(-c3cccnc3)n[nH]2)ccc1Br
83 | > 50 µM (inactive) | Cc1ccc(NC(=O)c2ccc3nn(CC(=O)Nc4ccc(F)cc4F)c(=O)n3c2)cc1
84 | > 50 µM (inactive) | COc1ccc(CCC(=O)Nc2ccc3c(c2)Sc2ncccc2C(=O)N3C)cc1
85 | 6.42 µM | CCCn1c(=O)c(-c2ccc(C(=O)NCc3ccc(OC)cc3)cc2)nc2cccnc21
86 | > 50 µM (inactive) | O=C(Nc1ccccc1)c1cn(-c2cc(N3CCCC3)ncn2)cn1
87 | > 50 µM (inactive) | CC1CCc2c(sc3nc(CC#N)[nH]c(=O)c23)C1 (stereo unspecified)
88 | > 50 µM (inactive) | COc1ccc(OC)c(NC(=O)c2ccc(-n3nnnc3SC)cc2)c1
89 | > 50 µM (inactive) | Cc1ccc(NC(=O)c2cc(-c3cccnc3)n(-c3ccccc3)n2)nc1

Row | Compound | IC50
90 | CC1CC[C@]2(NC1)O[C@H]1C[C@H]3[C@@H]4CC[C@H]5C[C@@H](O[C@@H]6O[C@H](CO)[C@H](O[C@@H]7O[C@H](CO)[C@@H](O)[C@H](O[C@@H]8OC[C@@H](O)[C@H](O)[C@H]8O)[C@H]7O[C@@H]7O[C@H](CO)[C@@H](O)[C@H](O)[C@H]7O)[C@H](O)[C@H]6O)CC[C@]5(C)[C@H]4CC[C@]3(C)[C@H]1[C@@H]2C (stereo partly specified) | > 50 µM (inactive)
91 | COc1cccc2c1NC(=O)C21CCN(C(=O)Nc2cccc3ccccc23)CC1 | > 50 µM (inactive)
